According to patent US10265346B2, “Trehalose-containing mammalian cell suspension for prevention of pulmonary embolism formation” (OTSUKA PHARMACEUTICAL FACTORY, INC., priority 2012, dated 2019):

Test: Preventive effect against pulmonary embolism formation (no method given)
Settings: stated as demonstrated by the present inventors, no data given

## dextran
  preventive effect against pulmonary embolism formation (in words): demonstrated to have a preventive effect against pulmonary embolism formation
